The text below walks through data of patent publication US4726941A, “Acylated cyanamide composition for treating ethanol ingestion” (Regents of the University of Minnesota, priority 1986, dated 1988).

For data set [1], the system named is aldehyde dehydrogenase (AlDH). The following applies: without enzymatic activation, cited from earlier work.
Data set [2] concerns AlDH. Description: Initial screen: elevation of blood acetaldehyde (AcH) after ethanol in rats, prodrug 1.0 mmol/kg ip. The format is in vivo. The following applies: rat; for potency in elevating ethanol-derived blood AcH (in words): 3 hours post-drug; for elevation of blood AcH over drug-free controls at 3 hours: ethanol 2 g/kg ip at 2 hours, sacrifice 3 hours post-drug; for elevation of blood AcH over controls at 16 hours: ethanol 2 g/kg ip at 15 hours, sacrifice 16 hours post-drug; for duration of action / blood AcH at 16 hours (in words): 16 hours post-drug. Here is the method: Compounds 1-11 were evaluated in rats for their ability to elevate and maintain blood acetaldehyde (AcH) levels following ethanol administration employing the methodology outlined in Table I.
1. Drug Dose: 1.0 mmol/kg (ip)
2. Animals: Male rats of Sprague-Dawley descent (BioLab, Inc., St. Paul, MN), weighing 185-225 g were used. Four animals were used for each drug administration protocol.
3. Timing: Animals were fasted beginning at 7:00 or 8:00 AM. One group of rats were administered the prodrug at 5:00 PM (zero time) and ethanol (2 g/kg, ip) at 8:00 AM (15 hours), and the animals were sacrificed at 9:00 AM (16 hours). A second set of rats received the prodrug at 6:30 AM (zero time) and ethanol at 8:30 AM (2 hours) and the animals were sacrificed at 9:30 AM (3 hours). Cyanamide treated animals (1.0 mmol/kg) served as positive control. Blood AcH levels were determined as described hereinbelow.
(§1) Blood AcH levels were measured 1 hour after ethanol (2 g/kg, ip) in treated and control animals essentially as described by Shirota et al., in J. Med Chem., 23, 669 (1980). The animal was stunned by a quick blow to the head and blood was immediately withdrawn by open chest cardiac puncture. Aliquots (0.2 ml) were placed in 20 ml serum vials containing 1.0 ml of 5 mM sodium azide (to minimize the artifactual generation of AcH from ethanol), and the vials immediately capped with a rubber septum, frozen on Dry Ice, and kept frozen at -20° C. until assayed. AcH was determined in duplicate by the head-space gas chromatographic procedure previously described by Nagasawa et al., in Life Sci., 20, 187 (1977), and quantitated using a standard curve based on standards with known concentrations of AcH.

Data set [3] in a line: Stability of the purified compound on standing. It is filed as physicochemical. The following applies: clear colorless liquid, storage at 5° C. How it is done:
n-Butyryl chloride (3.2 g, 3.12 ml, 0.030 mol) in 50 ml of freshly distilled dry THF was added drop-wise to a suspension of sodium cyanamide (5.76 g, 0.090 mol) in 100 ml of freshly distilled dry THF at ice bath temperature. The reaction was allowed to proceed at room temperature for 24 hours and then the mixture evaporated to dryness in vacuo. The resulting yellow solid residue was dissolved in distilled water (50 ml) and the alkaline solution was adjusted to pH 6.5 with 10% HCl. The mixture was then extracted with ethyl acetate (2×50 ml). […] TLC: Rf =0.6 in EtOAC/petroleum ether/AcOH (50:100:1), detected by UV quenching and orange color with ferricyanide spray reagent; IR (neat, cm^-1) 3100-3250 (NH), 2860-2960 (alkyl), 2260 (C≡N), 1725 (C=0); NMR (Silanor C, δ from TMS) 8.2-8.5 (broad, NH), 2.3-2.6 (t, --CH2 --CH2 --C=O), 1.5-1.9 (sextet, CH3 --CH2 --CH2 --), 0.8-1.1 (t, CH3 --CH2 --); CI--MS (NH 3 : positive) m/z (rel. intensity) 147 (12.6, [(M+1)+2NH3 ]), 130 (100.0) [(M+1)+NH3 ], 105 (5.2) [(M+1)+2NH3 --H2 NCN]; CI--MS (NH3 : negative) m/z (rel. intensity) 111 (100.0) [M-1], 68 (2.0) [(M-1)--CH3 CH2 CH2 ], 41 (16.7) [(M-1)--CH3 CH2 CH=C=O].

In data set [4] the test system is AlDH. Description: Time course protocol (72 hour), oral: blood AcH after ethanol in rats. The format is in vivo. The following applies: rat, 1.0 mmol/kg po, FIG. 6. How it is done: FIG. 6 is a graphic depiction of the effectiveness of palmitoylcyanamide and N-benzoyl-L-leucylcyanamide, administered orally, in elevating blood AcH following ethanol administration in rats over a 72 hour time course.
(§2) 1. Drug Dose: 0.5 mmol/kg (ip); 1.0 mmol/kg (po)
(§3) 2. Animals: Male rats of Sprague-Dawley descent (BioLab, Inc., St. Paul, MN), weighing 176-200 g were used. Two animals were used for each drug administration protocol.
(§4) 3. Timing: Overnight fasted animals were administered the prodrug at zero time, ethanol (2 g/kg, ip) at 1, 4, 11, 23, 35, 47 and 71 hours and sacrificed 1 hour subsequent to each ethanol administration. Cyanamide treated animals (1.0 mmol/kg) served as positive control.
as §1

Data set [5] deals with AlDH. The data set is described as follows: Time course protocol (72 hour), ip: blood AcH after ethanol in rats. It is filed as in vivo. The following applies: rat; for duration of blood AcH elevation over 72-hour time course (in words) / time at which blood AcH elevation reached maximum: FIG. 5 (0.5 mmol/kg); for time at which blood AcH elevation reached maximum: ethanol 2 g/kg ip 1 hour before sacrifice. Here is the method: FIG. 5 is a graphic depiction of the effectiveness of four of the compositions of the invention in elevating blood AcH following ethanol administration in rats over a 72 hour time course (0.5 mmol/kg i.p. dose).
as §2, §3, §4, §1

For data set [6] the following is noted: rat, within 6 hours; cited from earlier work.
Data set [7] deals with aldehyde dehydrogenase (AlDH). The following applies: clinical use, background statement; cited from earlier work.

Where two headings read alike, the source gives them in different places. Where only a bound is given, the exact number is not on record here.

Turning to `CC(=O)NC#N` [AC, acetylcyanamide], in data set [1], the “AlDH inhibitory activity in vitro” value is listed as “devoid of AlDH inhibitory activity in vitro”.
In the case of `CC(=O)NC#N.[Na]` [Compound 1, Sodium Acetylcyanamide], in data set [2], the “potency in elevating ethanol-derived blood AcH (in words)” value (“potency” below) is “much weaker than cyanamide” and the “elevation of blood AcH over drug-free controls at 3 hours” value came out at 25 fold.
For `N#CNC(=O)c1ccccc1` [Compound 2, Benzoylcyanamide], the “elevation of blood AcH over controls at 16 hours” value in data set [2] amounted to 10 fold.
Take `CC(C)(C)C(=O)NC#N` [Compound 3, Pivaloylcyanamide]: in data set [2], the “potency” value was “very potent” and the “duration of action / blood AcH at 16 hours (in words)” value (from here on “duration of action / blood AcH”) was “short acting”.
Taken in the same sequence, the figures for `N#CNC(=O)C12CC3CC(CC(C3)C1)C2.N#CNC(=O)C12CC3CC(CC(C3)C1)C2` [Compound 4, 1-Adamantanecarbonyl Cyanamide (1-Adamantoylcyanamide)] were “very potent” and “short acting”.
Take `CCCC(=O)NC#N` [Compound 5, n-Butyrylcyanamide]: in data set [2], the “potency” value is reported as “even more potent than cyanamide itself”, the “duration of action / blood AcH” value was “short-acting”, the “elevation of blood AcH over drug-free controls at 3 hours” value was found to be 170 fold and the “elevation of blood AcH over controls at 16 hours” value is “approximately 20 fold”. Besides, in data set [3], the stability on standing result is “decomposes on standing even at 5 °C after prolonged periods”.
On to `CCCCCCCCCCCCCCCC(=O)NC#N` [Compound 6, Palmitoylcyanamide], for which, in data set [4], the “time at which AcH levels once again increased” value was determined as 24 h, the “time at which blood AcH fell back to control levels” value is “around 36 hours”, the “time of maximum AcH levels” value came out at 2 h and the “time of trough of AcH levels” value was found to be 12 h. In addition, in data set [5], the “duration of blood AcH elevation over 72-hour time course (in words)” value (“duration … over 72-hour time course (in words)” for short) is listed as “significantly elevated even at 48 hours” and the “time at which blood AcH elevation reached maximum” value is “around 5 hours”. Moreover, in data set [2], the “potency” value is reported as “almost as potent as cyanamide” and the “elevation of blood AcH over controls at 16 hours” value worked out at 100 fold.
Take `CCCCCCCCCCCCCCCCCC(=O)NC#N` [Compound 7, Stearoylcyanamide]: in data set [5], the “duration … over 72-hour time course (in words)” value is given as “gradually fell” and the “time at which blood AcH elevation reached maximum” value is given as “around 5 hours”. Further, in data set [2], the “potency” value is “almost as potent as cyanamide” and the “elevation of blood AcH over controls at 16 hours” value is listed as “more than 50 fold”.
As to `N#CNC(=O)OCc1ccccc1.[Na]` [Compound 8, N-Carbobenzoxycyanamide, Sodium Salt], in data set [2], the “elevation of blood AcH over drug-free controls at 3 hours” value is reported as 120 fold.
Consider `N#CNC(=O)CNC(=O)OCc1ccccc1` [Compound 9, N-Carbobenzoxyglycylcyanamide], for which, in data set [2], the “duration of action / blood AcH” value is reported as “reduced to almost control levels” and the “elevation of blood AcH over drug-free controls at 3 hours” value was “more than 80 fold”.
On to `N#CNC(=O)CNC(=O)c1ccccc1.N#CNC(=O)CNC(=O)c1ccccc1` [Compound 10, N-Benzoylglycylcyanamide (Hippurylcyanamide)], for which the “duration … over 72-hour time course (in words)” value in data set [5] was “failed to maintain elevated blood AcH past 12 hours”. Moreover, in data set [2], the “potency” value was “less potent than N-benzoyl-L-leucylcyanamide (11)” and the “duration of action / blood AcH” value is “long-acting with significant levels of blood AcH present”.
Consider `CC(C)C[C@H](NC(=O)c1ccccc1)C(=O)NC#N` [Compound 11, N-Benzoyl-L-leucylcyanamide], for which, in data set [4], the “time at which AcH levels once again increased” value is 24 h, the “time at which blood AcH fell back to control levels” value was “around 36 hours”, the “time of maximum AcH levels” value worked out at 2 h and the “time of trough of AcH levels” value worked out at 12 h. Also, in data set [5], the “duration … over 72-hour time course (in words)” value was “continued to maintain elevated blood AcH even at 72 hours”. The “initial blood AcH level at 2 hours compared with cyanamide” value in data set [5] (FIG. 5, 2 hours) is recorded as “less than cyanamide”. In data set [2], the “potency” value is “elevated blood AcH levels” and the “duration of action / blood AcH” value is reported as “long-acting with significant levels of blood AcH present”.
Regarding `CC(C)C[C@H](NC(=O)CNC(=O)OCc1ccccc1)C(=O)NC#N` [Compound 12, N-Cbz-glycyl-L-leucylcyanamide], in data set [2], the “potency” value was “more potent than (9)” and the “duration of action / blood AcH” value was “did not maintain significantly elevated blood AcH level”.
For `N#CNC(=O)[C@@H]1CCC(=O)N1C(=O)OCc1ccccc1` [Compound 13, N-Cbz-L-pyroglutamylcyanamide], in data set [2], the “potency” value is given as “not nearly as potent as the other prodrugs”.
The same measure, in the same setting: as for `CC(C)C[C@H](NC(=O)[C@@H]1CCC(=O)N1)C(=O)NC#N` [Compound 14, L-Pyroglutamyl-L-leucylcyanamide], the entry is “not nearly as potent as the other prodrugs”.
With `N#CNC(=O)[C@H](Cc1ccccc1)NC(=O)[C@@H]1CCC(=O)N1` [Compound 15, L-Pyroglutamyl-L-phenylalanylcyanamide], in data set [2], the “potency” value was “very potent inhibitor of AlDH in vivo” and the “elevation of blood AcH over drug-free controls at 3 hours” value was “more than 110 fold”.
On to `N#CN` [Cyanamide, cyanamide], for which the “AlDH inhibitory activity in vitro” value in data set [1] (listed as cyanamide) is “devoid of AlDH inhibitory activity in vitro”. The “AlDH inhibitory activity in vitro” value in data set [1] is “does not inhibit AlDH”. For the same compound, the “administered cyanamide eliminated as acetylcyanamide in the urine” value in data set [6] is given as “At least 94%”. Also, in data set [5], the “duration … over 72-hour time course (in words)” value is “fell rapidly almost to control values at 36 hours” and the “time at which blood AcH elevation reached maximum” value was not above 2 h. Besides, in data set [2], the “elevation of blood AcH over drug-free controls at 3 hours” value is 150 fold and the “elevation of blood AcH over controls at 16 hours” value was “more than 25 fold”.
As to `[Ca+2].[N-]=C=[N-]` [calcium carbimide], the duration of activity entry in data set [7] is on record as “approximately 24 hours”.
